#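 Where inhibition never reached the appropriate level, the endpoint shown equals the highest concentration tested. Otherwise, values were interpolated linearly from a five-concentration, 48-hour dose response in 96-well plates. GI50 is the concentration that inhibits growth by half. At the TGI there is no net growth.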
# Tests used:
# Assay in all cases: NCI-60 cell line screen, 48 h
# [1] = tested on: CCRF-CEM leukemia
# [2] = tested on: HOP-62 NSCLC
# [3] = tested on: HOP-92 NSCLC
# [4] = tested on: OVCAR-5 ovarian
# [5] = tested on: SF-268 CNS
# [6] = tested on: SK-MEL-5 melanoma
# [7] = tested on: UACC-257 melanoma
# [8] = tested on: UACC-62 melanoma
# [9] = tested on: HT29 colon
# [10] = tested on: HS 578T breast
Structure (SMILES),TGI [1] [µM],TGI [2] [µM],TGI [3] [µM],TGI [4] [µM],TGI [5] [µM],TGI [6] [µM],TGI [7] [µM],TGI [8] [µM],TGI [9] [µM],GI50 [1] [µM],GI50 [2] [µM],GI50 [10] [µM],TGI [10] [µM],GI50 [9] [µM],GI50 [4] [µM],GI50 [5] [µM],GI50 [6] [µM],GI50 [7] [µM],GI50 [8] [µM],GI50 [3] [µM]
CN(C)c1ccc2c(=O)c3ccccc3oc2n1,> 100,> 100,> 100,> 100,> 100,> 100,> 100,> 100,,,,,,,,,,,,
O=C1[C@@H]2C(c3ccccc3Br)=NO[C@@H]2C(=O)N1c1ccc(Cc2ccc(N3C(=O)[C@H]4C(c5ccccc5Br)=NO[C@H]4C3=O)cc2)cc1,> 100,> 100,> 100,> 100,> 100,> 100,> 100,> 100,> 100,,,,,,,,,,,
CC(C)(C)NNC(=O)/C(=C/c1ccc([N+](=O)[O-])cc1)NC(=O)c1ccccc1,99.1,> 100,> 100,> 100,> 100,> 100,> 100,> 100,> 100,,,,,,,,,,,
O=C(Nc1ccc(Cl)c(Cl)c1)c1cccc(NC2=C(Cl)C(=O)N(Cc3ccccc3)C2=O)c1,> 100,> 100,,> 100,> 100,> 100,> 100,> 100,> 100,23.4,> 100,45.4,> 100,59.6,> 100,34.9,> 100,41.1,37.1,
CC(C)/C=C1\CCC(CN2CCCC2)C1=O (stereo not given),17.3,> 100,36.1,35.2,43.6,33.2,33.9,47.4,25.6,,,,,,,,,,,
COc1ccc(C2CC(=O)c3c(O)cc(O)cc3O2)cc1O (stereo not given),> 100,> 100,,> 100,> 100,> 100,> 100,> 100,> 100,,,,,,,,,,,
CCN(CC)CCOCC[C@H]1CC[C@H]2[C@@H]3[C@H](C)Cc4cc(OS(N)(=O)=O)ccc4[C@H]3CC[C@]12C,4.34,2.88,3.5,7.34,2.66,2.23,3.34,,1.03,1.14,1.43,,,0.244,2.52,1.31,1.04,1.74,,1.39
COc1ccccc1NC(=O)c1sc2nc3c(cc2c1N)C(=O)CCC3,> 100,7.17,,,> 100,> 100,,> 100,,> 100,2.37,6.77,> 100,,,5.06,1.62,,3.99,
COC(=O)C1=C(c2ccc(OC)c(OC)c2)OC(c2ccc(OC)c(OC)c2)C1 (stereo not given),> 100,> 100,> 100,> 100,> 100,34.3,> 100,> 100,> 100,,,,,,,,,,,
Cc1ccc(S(=O)(=O)N[C@H](C(=O)O)c2ccccc2)cc1,> 100,,> 100,> 100,> 100,> 100,> 100,> 100,> 100,,,,,,,,,,,
CC(NS(=O)(=O)c1ccc([N+](=O)[O-])cc1)C(=O)O (stereo not given),> 100,,> 100,> 100,> 100,> 100,> 100,> 100,> 100,,,,,,,,,,,
NC1=NC(=O)/C(=C/c2ccccc2[N+](=O)[O-])C(N)=N1,> 100,> 100,> 100,> 100,,> 100,> 100,> 100,> 100,,,,,,,,,,,
CS/C(=N\C(=S)N(C)C)N(c1ccccc1)c1nc(=[N+](C)C)ss1,8.45,52.9,51.2,,26.4,,17.3,19.2,11.6,,,,,,,,,,,
CCOc1ccccc1NC(=O)CC1C(=O)Nc2ccccc2S1=O (stereo not given),> 100,,> 100,> 100,> 100,> 100,> 100,> 100,> 100,,,,,,,,,,,
CCSCC1CC(O)(c2ccccc2)C(c2ccccc2)C(c2ccc(Cl)cc2)O1 (stereo not given),6.5,3.6,,3.54,5.56,3.01,3.95,3.01,3.17,2.03,1.85,2.5,8.87,1.09,1.82,2.1,1.64,1.83,1.4,
CC1CC(C2=CC=CCS2)=Nc2ccccc2S1 (stereo not given),> 100,> 100,> 100,> 100,> 100,> 100,> 100,> 100,,,,,,,,,,,,
COc1ccc(C(=O)c2cc(OC)c(OC)c(OC)c2)cc1,> 100,> 100,> 100,> 100,> 86.8,26.3,> 100,> 9.77,> 100,,,,,,,,,,,
O=C(Nc1ccccc1-c1n[nH]c(=S)[nH]c1=O)C(F)(F)F,> 100,> 100,> 100,> 100,> 100,> 100,,> 100,> 100,,,,,,,,,,,
Cc1ccccc1NC(=O)C(=O)C(C#N)c1ccc(Cl)cc1 (stereo not given),> 100,> 100,> 100,> 100,> 100,> 100,> 100,> 100,> 100,,,,,,,,,,,
O=C(Nc1ccc(Cl)cc1Cl)C1C(=O)N(c2ccc(Cl)cc2Cl)C(=O)/C1=N\Nc1ccc([N+](=O)[O-])cc1[N+](=O)[O-] (stereo not given),> 100,> 100,62.3,> 100,> 100,> 100,98.7,> 100,> 100,,,,,,,,,,,
COc1cc(/C=C/c2ccncc2)cc(OC)c1OC,> 100,> 100,> 100,97.9,> 100,> 100,> 100,> 100,> 100,,,,,,,,,,,
CCNC(=O)[C@@H]1CCCN2C(=O)CC[C@H](NC(=O)[C@H](Cc3ccc(OP(=O)(O)O)cc3)NC(C)=O)C(=O)N12,> 25,> 25,,> 25,> 25,> 25,> 25,> 25,> 25,> 25,> 25,> 25,> 25,> 25,> 25,> 25,> 25,> 25,> 25,
O=C(O)C/C(=C\c1ccco1)C(=O)O,,> 100,,> 100,,> 100,> 100,> 100,> 100,,,,,,,,,,,
FC(F)(F)c1nc(N2CCCC2)ncc1-c1nnnn1-c1ccc(Cl)cc1,45.4,,,> 100,> 100,28.3,69.5,> 100,65.9,6.71,,21.2,> 100,20.4,> 100,23.7,12,7.11,7.49,
CC1CC[C@]2(C(=O)O)CCC3(COC(=O)/C=C\c4ccc(O)cc4)C(=CCC4[C@@]5(C)CC[C@H](O)C(C)(C)C5CC[C@]43C)[C@@H]2[C@H]1C (stereo not given in full),81.9,,,48.9,30.8,40.7,69.6,32.6,35.5,,,,,,,,,,,
F,> 6870,> 6870,> 6870,> 6870,> 6870,2700,4940,3100,6180,4540,2560,,,2110,2560,3540,1420,2160,1550,1850
CC(=O)N[C@@H](Cc1ccc(OP(=O)(O)O)cc1)C(=O)N[C@H]1CCC(=O)N2CCC[C@@H](C(=O)NCc3ccc(Cl)cc3)N2C1=O,> 25,> 25,,> 25,> 25,> 25,> 25,> 25,> 25,> 25,> 25,> 25,> 25,> 25,> 25,> 25,> 25,> 25,> 25,
Cc1ccc(NC(=O)c2cc3cc(N=Nc4ccc(Br)cc4)ccc3oc2=O)cc1,,,> 100,> 100,> 100,> 100,> 100,,> 100,,,,,,,,,,,
COc1c(C=O)c2c(c(OC)c1OC)-c1ccc(OC)c(=O)cc1[C@@H](NC(C)=O)CC2,> 100,> 100,7.18,> 100,30.3,0.272,> 88.8,> 92.3,> 8.89,,,,,,,,,,,
